Experimental data as given in ChEMBL document CHEMBL1201862, “PubChem BioAssay data set” (2004).
The source made the active and inactive calls.

Experiments:
fMet-Leu-Phe receptor = molecular target: T1, fMet-Leu-Phe receptor (Homo sapiens, UniProt P21462); assay: FPR ligands, dose response (AID 519); assay type: functional
T1 sequence (P21462 whole entry): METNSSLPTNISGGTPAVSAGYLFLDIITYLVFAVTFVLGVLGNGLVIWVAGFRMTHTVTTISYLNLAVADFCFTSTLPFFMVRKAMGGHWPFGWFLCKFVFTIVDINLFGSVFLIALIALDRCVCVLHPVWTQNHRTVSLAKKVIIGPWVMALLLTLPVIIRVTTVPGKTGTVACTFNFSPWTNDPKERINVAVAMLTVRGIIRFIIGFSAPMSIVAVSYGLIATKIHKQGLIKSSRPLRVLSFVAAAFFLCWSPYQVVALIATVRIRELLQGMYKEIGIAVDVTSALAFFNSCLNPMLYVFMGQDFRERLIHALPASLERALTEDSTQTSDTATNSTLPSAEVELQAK

[1] = molecular target: Disintegrin and metalloproteinase domain-containing protein 17 (Homo sapiens, UniProt P78536); assay: exosite inhibitors of ADAM17, dose response, biochemical (AID 743260)
[2] = ADAM10 protease inhibitors, dose response, selectivity assay for ADAM17 exosite inhibitor project, biochemical, FRET peptide substrate, recombinant human ADAM10 (AID 743259);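 also: ADAM10 enzyme cleaving a FRET peptide substrate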
[3] = molecular target: T2, Fructose-bisphosphate aldolase (Mycobacterium tuberculosis, UniProt P9WQA3); assay: Fluorescence-based biochemical high throughput dose response assay for inhibitors of the fructose-bisphosphate aldolase (FBA) of M. tuberculosis.; assay type: functional
T2 sequence (P9WQA3 whole entry): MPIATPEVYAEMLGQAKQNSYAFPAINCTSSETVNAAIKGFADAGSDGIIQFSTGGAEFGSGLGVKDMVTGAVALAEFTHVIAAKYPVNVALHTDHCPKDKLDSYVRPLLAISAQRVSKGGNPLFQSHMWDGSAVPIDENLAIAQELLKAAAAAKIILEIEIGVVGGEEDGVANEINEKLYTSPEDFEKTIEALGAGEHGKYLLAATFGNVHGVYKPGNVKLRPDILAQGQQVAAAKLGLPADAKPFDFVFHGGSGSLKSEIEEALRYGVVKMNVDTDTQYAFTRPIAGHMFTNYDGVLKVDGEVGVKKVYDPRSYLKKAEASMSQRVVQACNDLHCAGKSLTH

Beta-lactamase [4] = molecular target: T3, Beta-lactamase (Pseudomonas aeruginosa, UniProt Q79MP6); assay: IMP-1 metallo-beta-lactamase inhibitors, dose response, selectivity assay for VIM-2 inhibitor project, biochemical, epi-absorbance (AID 1920)
Streptokinase A = molecular target: T4, Streptokinase A (Streptococcus pyogenes serotype M1, UniProt P10520); assay: S. pyogenes streptokinase expression inhibitors, potency, dose response, plasminogen activation absorbance, OD405 (AID 1914); assay type: functional, Streptococcus pyogenes M1 GAS;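 also: secreted streptokinase activity via plasminogen activation per viability signal from cell pellet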
T4 sequence (P10520 whole entry): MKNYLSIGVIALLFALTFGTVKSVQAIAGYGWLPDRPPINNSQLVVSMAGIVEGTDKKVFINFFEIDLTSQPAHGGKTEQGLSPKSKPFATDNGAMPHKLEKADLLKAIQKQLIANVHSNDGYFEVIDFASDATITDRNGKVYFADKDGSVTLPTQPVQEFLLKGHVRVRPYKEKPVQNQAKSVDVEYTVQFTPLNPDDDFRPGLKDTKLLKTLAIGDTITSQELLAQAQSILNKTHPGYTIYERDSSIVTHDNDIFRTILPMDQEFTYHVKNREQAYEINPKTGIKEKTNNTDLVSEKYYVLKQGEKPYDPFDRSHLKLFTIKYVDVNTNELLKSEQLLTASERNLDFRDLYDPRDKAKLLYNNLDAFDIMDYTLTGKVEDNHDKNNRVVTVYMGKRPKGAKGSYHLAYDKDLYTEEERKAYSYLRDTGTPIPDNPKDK

Streptococcus = assay: Group A Streptococcus viability loss, dose response, counter-screen for streptokinase expression inhibitor project, luminescence, BacTiterGlo (AID 1915); assay type: functional, organism-based;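 also: potency for reduction of bacterial viability or growth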
Beta-lactamase [5] = molecular target: Beta-lactamase (Salmonella choleraesuis (strain SC-B67), UniProt Q5J463); assay: Epi-absorbance-based counterscreen for selective VIM-2 inhibitors: dose response biochemical high throughput screening assay to identify inhibitors of TEM-1 serine-beta-lactamase.
Beta-lactamase [6] = molecular target: T3, Beta-lactamase; assay: […] counterscreen for selective VIM-2 inhibitors: dose response biochemical high throughput screening assay to identify inhibitors of IMP-1 metallo-beta-lactamase.
[7] = tested on: Streptococcus sp. 'group A'; assay: growth inhibition of control SK(-) GAS strain, dose response, counter-screen for streptokinase expression inhibitor project, luminescence, kanamycin, BacTiterGlo, confirmation (AID 1900); assay type: functional, organism-based
[8] = molecular target: T5, Zinc finger protein mex-5 (Caenorhabditis elegans, UniProt Q9XUB2); assay: MEX-5/TCR-2 RNA interaction inhibitors, dose response, biochemical, C. elegans, fluorescence polarization (AID 1960)
T5 sequence (Q9XUB2 whole entry): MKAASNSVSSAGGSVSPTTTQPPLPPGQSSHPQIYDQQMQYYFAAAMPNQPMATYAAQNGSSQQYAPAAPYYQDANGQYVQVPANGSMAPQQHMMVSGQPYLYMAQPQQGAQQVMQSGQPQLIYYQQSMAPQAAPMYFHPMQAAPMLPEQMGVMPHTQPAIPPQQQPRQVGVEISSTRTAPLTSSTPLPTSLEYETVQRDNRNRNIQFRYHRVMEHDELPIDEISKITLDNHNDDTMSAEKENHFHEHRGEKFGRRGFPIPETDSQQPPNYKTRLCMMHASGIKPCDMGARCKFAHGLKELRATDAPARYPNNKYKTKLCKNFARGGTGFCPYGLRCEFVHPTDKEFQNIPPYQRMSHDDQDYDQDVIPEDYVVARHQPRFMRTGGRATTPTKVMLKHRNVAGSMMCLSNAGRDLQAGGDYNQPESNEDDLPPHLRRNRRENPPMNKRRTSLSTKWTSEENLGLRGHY

[9] = molecular target: T6, Probable nicotinate-nucleotide adenylyltransferase (Staphylococcus aureus (strain N315), UniProt P65502); assay type: functional, Staphylococcus aureus subsp. aureus N315; settings: read-out: IC50_Mean;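 as to IC50 Mean: confirmatory dose-response retesting of NadD inhibitor hits first found in an ultra-high-throughput screen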
[10] = molecular target: T7, RNA-binding protein pos-1 (Caenorhabditis elegans, UniProt G5EF15); assay: inhibitors of POS-1/mex-3 RNA binding, dose response, biochemical, fluorescence polarization (AID 1964);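 also: purified POS-1 fused to maltose binding protein made in E. coli; potency of compounds blocking POS-1 binding to fluorescent RNA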
T7 sequence (G5EF15 whole entry): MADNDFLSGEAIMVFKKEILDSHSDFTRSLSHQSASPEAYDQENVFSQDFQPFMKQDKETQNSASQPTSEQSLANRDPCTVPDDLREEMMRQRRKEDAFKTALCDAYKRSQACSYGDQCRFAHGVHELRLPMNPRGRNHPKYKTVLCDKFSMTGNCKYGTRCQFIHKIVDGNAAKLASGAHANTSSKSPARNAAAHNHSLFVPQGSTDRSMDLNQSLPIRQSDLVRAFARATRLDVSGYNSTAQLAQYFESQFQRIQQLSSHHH

[11] = molecular target: T6, Probable nicotinate-nucleotide adenylyltransferase; assay type: functional, Staphylococcus aureus subsp. aureus N315
[12] = molecular target: T8, Corticotropin-releasing factor receptor 2/Corticotropin-releasing factor-binding protein (Homo sapiens, UniProt P24387+Q13324); assay: Dose Response confirmation of uHTS hits for small molecule antagonists of the CRF-binding protein and CRF-R2 receptor complex.; assay type: functional; settings: read-out: IC50_Mean
T8 sequence (Q13324 whole entry): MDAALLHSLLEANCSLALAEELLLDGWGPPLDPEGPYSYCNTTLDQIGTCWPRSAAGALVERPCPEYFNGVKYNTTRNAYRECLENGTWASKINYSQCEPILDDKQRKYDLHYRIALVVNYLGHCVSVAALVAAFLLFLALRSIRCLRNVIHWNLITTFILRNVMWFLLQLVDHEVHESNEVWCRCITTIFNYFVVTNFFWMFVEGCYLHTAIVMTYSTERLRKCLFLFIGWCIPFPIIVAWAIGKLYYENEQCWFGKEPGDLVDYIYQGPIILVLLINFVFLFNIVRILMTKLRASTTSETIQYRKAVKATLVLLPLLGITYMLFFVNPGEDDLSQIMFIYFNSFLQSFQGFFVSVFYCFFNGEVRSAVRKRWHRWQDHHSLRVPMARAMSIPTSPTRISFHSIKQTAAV
T8 sequence (P24387 whole entry): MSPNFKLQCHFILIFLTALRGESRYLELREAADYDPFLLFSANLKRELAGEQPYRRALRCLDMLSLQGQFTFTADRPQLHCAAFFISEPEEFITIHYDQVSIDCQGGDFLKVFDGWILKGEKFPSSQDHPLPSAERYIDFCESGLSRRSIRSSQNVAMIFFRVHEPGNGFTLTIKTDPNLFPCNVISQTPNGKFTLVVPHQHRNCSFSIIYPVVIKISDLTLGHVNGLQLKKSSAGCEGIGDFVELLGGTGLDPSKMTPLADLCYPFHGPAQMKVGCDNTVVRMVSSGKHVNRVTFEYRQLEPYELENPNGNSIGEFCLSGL

[13] = molecular target: Nucleotide-binding oligomerization domain-containing protein 2 (Homo sapiens, UniProt Q9HC29); assay: NOD2 signaling inhibitors, cell-based, luminescence, uHTS, HEK293 (AID 1566); assay type: functional
[14] = molecular target: T8, Corticotropin-releasing factor receptor 2/Corticotropin-releasing factor-binding protein; assay: activators of CRF receptor 2 with binding protein – uHTS hits, confirmation (AID 602473); assay type: functional; settings: read-out: EC50_Mean
HEK293 [15] = assay: NOD2 signaling inhibitors in MDP-stimulated cells, cell-based, uHTS, luminescence (AID 2001); assay type: functional; settings: Homo sapiens
HEK293 [16] = assay: cells; assay type: functional, cell-based; settings: Homo sapiens
[17] = CRF-BP/CRF-R2 complex antagonists, dose response, cell-based, uHTS hits, 384-well (AID 651639); assay type: functional, Homo sapiens; settings: read-out: IC50_Mean
Fatty acid synthase [18] = molecular target: T9, Fatty acid synthase (Homo sapiens, UniProt P49327); assay: FAS thioesterase domain inhibitors, dose response, biochemical, kinetic fluorescence intensity (AID 624326); assay type: functional;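 also: rate of fluorescence rise from hydrolysis of a fluorogenic O-methyl fluorescein ester substrate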
HEK293 [19] = assay: cells; assay type: functional, cell-based; settings: Homo sapiens; remark: listed apart in the source
HEK293 [20] = assay: NOD1 signaling inhibitors, primary screen, cell-based, luminescence, uHTS (AID 1578); assay type: functional; settings: Homo sapiens
HEK293 [21] = assay: cells; assay type: functional, cell-based; settings: Homo sapiens; remark: listed apart in the source
Fatty acid synthase [22] = molecular target: T9, Fatty acid synthase; assay: FAS thioesterase domain inhibitors, dose response, biochemical, endpoint fluorescence intensity, uHTS hits (AID 624327); assay type: functional;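 also: fluorescence from hydrolysis of an O-methyl fluorescein acyl ester substrate by the enzyme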

T9 sequence (P49327 whole entry, the tested form may be a part): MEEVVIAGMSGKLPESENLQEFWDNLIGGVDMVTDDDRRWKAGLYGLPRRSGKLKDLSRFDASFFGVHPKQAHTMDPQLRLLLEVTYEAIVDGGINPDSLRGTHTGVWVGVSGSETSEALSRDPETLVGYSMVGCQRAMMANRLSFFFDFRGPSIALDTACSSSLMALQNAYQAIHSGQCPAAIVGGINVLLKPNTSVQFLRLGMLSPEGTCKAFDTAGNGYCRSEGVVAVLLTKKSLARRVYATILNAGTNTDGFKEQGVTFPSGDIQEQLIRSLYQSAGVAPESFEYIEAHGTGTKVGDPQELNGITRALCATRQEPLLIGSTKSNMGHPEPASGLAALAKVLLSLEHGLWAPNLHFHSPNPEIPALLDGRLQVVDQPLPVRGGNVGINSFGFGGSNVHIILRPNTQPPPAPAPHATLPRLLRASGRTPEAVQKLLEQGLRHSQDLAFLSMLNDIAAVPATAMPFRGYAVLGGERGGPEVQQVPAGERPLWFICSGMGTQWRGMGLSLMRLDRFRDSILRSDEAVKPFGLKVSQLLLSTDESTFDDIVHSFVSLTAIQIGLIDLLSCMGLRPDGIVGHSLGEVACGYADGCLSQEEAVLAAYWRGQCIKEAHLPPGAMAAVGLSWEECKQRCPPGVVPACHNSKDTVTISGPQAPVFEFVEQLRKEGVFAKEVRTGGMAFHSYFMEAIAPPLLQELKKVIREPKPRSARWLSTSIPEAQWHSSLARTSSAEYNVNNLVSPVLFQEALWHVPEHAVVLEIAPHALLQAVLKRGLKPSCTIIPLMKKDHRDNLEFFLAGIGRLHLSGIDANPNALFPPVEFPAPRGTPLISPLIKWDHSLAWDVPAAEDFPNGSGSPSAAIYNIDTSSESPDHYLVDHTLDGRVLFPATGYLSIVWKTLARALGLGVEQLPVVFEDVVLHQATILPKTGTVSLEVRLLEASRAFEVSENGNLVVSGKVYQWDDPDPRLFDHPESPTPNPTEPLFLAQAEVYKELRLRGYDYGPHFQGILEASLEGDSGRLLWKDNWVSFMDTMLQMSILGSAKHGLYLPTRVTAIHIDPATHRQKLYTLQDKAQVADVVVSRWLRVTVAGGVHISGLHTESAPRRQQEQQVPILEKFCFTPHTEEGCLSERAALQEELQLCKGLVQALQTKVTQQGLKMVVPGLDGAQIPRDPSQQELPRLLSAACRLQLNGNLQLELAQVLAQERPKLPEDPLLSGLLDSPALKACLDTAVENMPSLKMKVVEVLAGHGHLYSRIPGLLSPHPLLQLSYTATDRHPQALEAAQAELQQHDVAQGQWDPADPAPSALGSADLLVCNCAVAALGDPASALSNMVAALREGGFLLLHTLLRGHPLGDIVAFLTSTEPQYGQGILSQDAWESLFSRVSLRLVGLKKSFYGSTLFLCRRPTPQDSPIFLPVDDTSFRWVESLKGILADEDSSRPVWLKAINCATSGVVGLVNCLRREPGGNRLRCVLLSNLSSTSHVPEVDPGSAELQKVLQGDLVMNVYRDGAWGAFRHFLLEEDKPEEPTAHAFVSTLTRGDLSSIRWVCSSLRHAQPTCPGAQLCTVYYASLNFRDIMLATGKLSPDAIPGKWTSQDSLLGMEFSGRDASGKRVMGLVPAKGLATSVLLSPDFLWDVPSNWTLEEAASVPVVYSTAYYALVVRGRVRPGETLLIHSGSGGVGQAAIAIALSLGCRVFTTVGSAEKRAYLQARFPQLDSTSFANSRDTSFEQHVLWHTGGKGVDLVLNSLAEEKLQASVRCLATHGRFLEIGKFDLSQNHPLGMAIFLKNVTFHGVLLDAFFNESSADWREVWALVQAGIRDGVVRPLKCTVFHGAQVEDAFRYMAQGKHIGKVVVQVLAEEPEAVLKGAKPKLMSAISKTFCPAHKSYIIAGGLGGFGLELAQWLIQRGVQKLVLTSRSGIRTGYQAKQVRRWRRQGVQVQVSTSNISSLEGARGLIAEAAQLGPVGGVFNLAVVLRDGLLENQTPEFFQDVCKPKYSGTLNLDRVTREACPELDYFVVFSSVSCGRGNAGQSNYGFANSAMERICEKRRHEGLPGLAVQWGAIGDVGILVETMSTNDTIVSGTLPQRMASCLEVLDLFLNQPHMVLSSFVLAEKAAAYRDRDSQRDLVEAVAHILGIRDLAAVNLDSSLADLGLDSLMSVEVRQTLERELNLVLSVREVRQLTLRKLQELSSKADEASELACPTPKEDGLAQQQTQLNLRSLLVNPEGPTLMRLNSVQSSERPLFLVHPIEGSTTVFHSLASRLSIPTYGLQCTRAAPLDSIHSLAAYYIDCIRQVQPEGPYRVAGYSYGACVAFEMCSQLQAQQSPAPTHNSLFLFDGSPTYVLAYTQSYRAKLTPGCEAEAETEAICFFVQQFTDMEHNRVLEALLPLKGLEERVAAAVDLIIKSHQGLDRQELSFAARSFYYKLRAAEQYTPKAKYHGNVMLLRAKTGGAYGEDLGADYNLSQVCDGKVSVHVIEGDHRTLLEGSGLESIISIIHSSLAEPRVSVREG
T6 sequence (P65502 whole entry, the tested form may be a part): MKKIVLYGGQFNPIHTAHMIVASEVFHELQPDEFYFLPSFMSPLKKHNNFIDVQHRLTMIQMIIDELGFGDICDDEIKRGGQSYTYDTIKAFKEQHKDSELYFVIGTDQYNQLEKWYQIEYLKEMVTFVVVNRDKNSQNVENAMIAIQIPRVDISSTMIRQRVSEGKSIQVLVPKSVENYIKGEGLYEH
T3 sequence (Q79MP6 whole entry): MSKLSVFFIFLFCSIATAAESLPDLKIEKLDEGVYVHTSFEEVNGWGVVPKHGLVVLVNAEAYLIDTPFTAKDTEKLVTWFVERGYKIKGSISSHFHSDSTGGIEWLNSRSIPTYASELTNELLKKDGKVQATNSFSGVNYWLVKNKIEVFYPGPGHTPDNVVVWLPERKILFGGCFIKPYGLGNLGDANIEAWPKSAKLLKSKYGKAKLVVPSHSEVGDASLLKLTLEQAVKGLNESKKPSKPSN
Sequence of Beta-lactamase (Salmonella choleraesuis (strain SC-B67), UniProt Q5J463) (Q5J463 whole entry): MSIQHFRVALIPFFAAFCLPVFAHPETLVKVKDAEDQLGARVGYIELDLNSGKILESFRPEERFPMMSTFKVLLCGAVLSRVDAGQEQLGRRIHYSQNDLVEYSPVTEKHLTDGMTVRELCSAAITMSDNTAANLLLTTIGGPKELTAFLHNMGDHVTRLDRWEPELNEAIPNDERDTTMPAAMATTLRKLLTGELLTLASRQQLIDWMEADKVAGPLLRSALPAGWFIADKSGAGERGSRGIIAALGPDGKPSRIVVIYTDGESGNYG
Sequence of Disintegrin and metalloproteinase domain-containing protein 17 (P78536 whole entry, the tested form may be a part): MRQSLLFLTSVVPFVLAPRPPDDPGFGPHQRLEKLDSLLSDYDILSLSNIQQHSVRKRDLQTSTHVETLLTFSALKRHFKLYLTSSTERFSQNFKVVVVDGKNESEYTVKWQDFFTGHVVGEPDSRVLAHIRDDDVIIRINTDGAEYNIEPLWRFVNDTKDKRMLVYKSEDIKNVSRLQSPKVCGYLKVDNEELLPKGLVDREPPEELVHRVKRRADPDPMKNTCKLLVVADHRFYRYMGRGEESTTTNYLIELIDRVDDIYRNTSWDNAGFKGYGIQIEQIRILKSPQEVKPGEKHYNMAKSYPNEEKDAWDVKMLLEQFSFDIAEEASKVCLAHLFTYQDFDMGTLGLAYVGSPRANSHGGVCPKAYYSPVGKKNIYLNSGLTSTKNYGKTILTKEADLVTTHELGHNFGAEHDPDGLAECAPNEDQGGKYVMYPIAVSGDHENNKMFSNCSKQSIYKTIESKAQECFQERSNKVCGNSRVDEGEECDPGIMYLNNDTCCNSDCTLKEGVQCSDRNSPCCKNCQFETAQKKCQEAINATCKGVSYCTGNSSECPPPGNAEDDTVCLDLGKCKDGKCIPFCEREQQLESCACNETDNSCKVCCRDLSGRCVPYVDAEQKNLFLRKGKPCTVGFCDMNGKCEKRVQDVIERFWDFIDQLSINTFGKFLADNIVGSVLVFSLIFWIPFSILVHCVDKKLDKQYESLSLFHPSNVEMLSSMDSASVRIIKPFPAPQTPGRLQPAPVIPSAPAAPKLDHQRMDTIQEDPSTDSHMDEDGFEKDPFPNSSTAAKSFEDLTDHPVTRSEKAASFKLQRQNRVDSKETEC
Sequence of Nucleotide-binding oligomerization domain-containing protein 2 (Q9HC29 whole entry, the tested form may be a part): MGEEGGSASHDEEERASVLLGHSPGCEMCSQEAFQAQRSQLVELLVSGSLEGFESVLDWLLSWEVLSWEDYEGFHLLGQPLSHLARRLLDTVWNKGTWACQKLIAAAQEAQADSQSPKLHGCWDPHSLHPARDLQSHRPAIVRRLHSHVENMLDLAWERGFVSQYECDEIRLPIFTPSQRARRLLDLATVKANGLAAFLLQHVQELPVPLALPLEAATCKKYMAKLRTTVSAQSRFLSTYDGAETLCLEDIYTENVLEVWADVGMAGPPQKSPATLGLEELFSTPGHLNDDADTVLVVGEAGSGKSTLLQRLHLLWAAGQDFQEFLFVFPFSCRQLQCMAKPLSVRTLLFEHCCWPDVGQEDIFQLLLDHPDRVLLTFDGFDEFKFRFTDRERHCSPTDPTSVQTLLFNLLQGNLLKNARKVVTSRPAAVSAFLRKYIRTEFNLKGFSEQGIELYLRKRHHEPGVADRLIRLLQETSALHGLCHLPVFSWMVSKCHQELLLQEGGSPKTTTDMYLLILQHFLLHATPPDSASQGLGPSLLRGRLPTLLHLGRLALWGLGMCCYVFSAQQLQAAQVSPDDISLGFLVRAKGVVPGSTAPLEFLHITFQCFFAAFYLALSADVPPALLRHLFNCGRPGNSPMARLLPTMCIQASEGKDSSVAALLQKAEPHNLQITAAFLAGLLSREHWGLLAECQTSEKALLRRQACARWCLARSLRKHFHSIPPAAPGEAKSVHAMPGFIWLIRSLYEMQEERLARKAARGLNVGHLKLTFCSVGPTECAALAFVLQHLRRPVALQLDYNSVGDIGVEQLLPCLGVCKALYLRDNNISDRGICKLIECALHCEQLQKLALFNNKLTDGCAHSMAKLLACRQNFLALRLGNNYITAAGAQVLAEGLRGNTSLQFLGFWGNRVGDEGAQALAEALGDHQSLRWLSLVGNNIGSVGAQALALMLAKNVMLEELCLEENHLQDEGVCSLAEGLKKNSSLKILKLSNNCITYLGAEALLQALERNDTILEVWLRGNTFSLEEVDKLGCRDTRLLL

Cc1cccc(Nc2ccccc2C(=O)NCc2ccco2)c1C
Ki (fMet-Leu-Phe receptor): > 66.7 µM (inactive)

COc1ccc(S[C@@H](CCN2CC[C@H](C)CCC2=O)c2ccccc2)cc1
IC50 [1]: > 69.5 µM (inactive)
IC50 [2]: 19.3 µM (inactive)

CN(C)/C=N/c1nc2nccc(-c3cccc(Cl)c3)n2n1
IC50 [3]: 1.15 µM (active)

CCOC(=O)COc1ccc2c(c1)C(=O)CC(C)(C)O2
IC50 [3]: 1.55 µM (active)

Cc1cc(C)n(-c2nc(SCC(=O)O)c3c4c(sc3n2)COC(C)(C)C4)n1
IC50 (Beta-lactamase [4]): > 59.6 µM (inactive)
EC50 (Streptokinase A): > 150 µM (not active)
EC50 (Streptococcus): > 150 µM (not active)
IC50 (Beta-lactamase [5]): > 59.6 µM (inactive)
IC50 (Beta-lactamase [6]): > 59.6 µM (inactive)
EC50 [7]: 8.1 µM (active)

CCCCC1=CC2=CC(=O)C(C)(OC(=O)CCc3ccccc3)C(=O)C2=CO1 (stereo unspecified)
EC50 [8]: > 150 µM (not active)
IC50 [9]: 19.8 µM (active)
EC50 [10]: 41.6 µM (active)
IC50 [11]: 8.81 µM (active)

O=C1S/C(=C\c2ccc(O)c([N+](=O)[O-])c2)C(=O)N1Cc1cccc([N+](=O)[O-])c1
IC50 [12]: 4.71 µM (active)
EC50 [13]: 4.39 µM (active)
EC50 [14]: > 53 µM (inactive)
IC50 (HEK293 [15]): 5.79 µM (inactive)
IC50 (HEK293 [16]): 7.53 µM (active)
IC50 [17]: > 20 µM (inactive)
IC50 (Fatty acid synthase [18]): 3.73 µM (active)
IC50 (HEK293 [19]): > 20 µM (inactive)
EC50 (HEK293 [20]): 4.33 µM (active)
IC50 (HEK293 [21]): 17.1 µM (active)
IC50 (Fatty acid synthase [22]): 3.83 µM (active)
